Measured values as given in patent US9833497B2, “Human originated EGF domain proteins and use of the same” (CHENGDU SOURCEBIO LIMITED-LIABILITY COMPANY, priority 2013, dated 2017).

What was measured:
Format in all cases: cell-based
E. coli DH5α = experiment: Antibacterial activity: MIC and growth curve against E. coli DH5α in 96-well plate; conditions: minimal inhibitory concentration against E. coli DH5α; 96-well plate, 5×10^5 CFU/mL, 37° C., judged after 8 h
In short: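 Log-phase DH5α (OD600 about 0.5, 37° C, 185 rpm in LB) was pelleted, resuspended in fresh LB and seeded at 5×10^5 CFU/mL with recombinant protein at 50, 25 and 12.5 μg/mL (two-fold series), in triplicate. Plates were shaken at 175 rpm, 37° C, and OD600 was read every 30 min. MIC was the lowest concentration with no growth.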

E. coli BL21 = experiment: MIC against Gram-negative bacteria: E. coli BL21; conditions: 5×10^5 CFU/mL
In short: (§1)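 MIC = lowest concentration of recombinant protein showing no growth. Test proteins: purified human-derived EGF domain proteins, two-fold dilution series, three wells per concentration; inoculum 5×10^5 CFU/mL in LB; incubation 37° C with shaking at 175 rpm.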

Pseudomonas aeruginosa = experiment: MIC against Gram-negative bacteria: Pseudomonas aeruginosa; conditions: 5×10^5 CFU/mL
In short: as §1

Klebsiella pneumonia = experiment: MIC against Gram-negative bacteria: Klebsiella pneumonia; conditions: 5×10^5 CFU/mL
In short: as §1

Enterobacter cloacae = experiment: MIC against Gram-negative bacteria: Enterobacter cloacae; conditions: 5×10^5 CFU/mL
In short: as §1

Aeromonas hydrophila = experiment: MIC against Gram-negative bacteria: Aeromonas hydrophila; conditions: 5×10^5 CFU/mL
In short: as §1

Citrobacter diversus = experiment: MIC against Gram-negative bacteria: Citrobacter diversus; conditions: 5×10^5 CFU/mL
In short: as §1

Moraxella catarrhalis = experiment: MIC against Gram-negative bacteria: Moraxella catarrhalis; conditions: 5×10^5 CFU/mL
In short: as §1

Proteus mirabilis = experiment: MIC against Gram-negative bacteria: Proteus mirabilis; conditions: 5×10^5 CFU/mL
In short: as §1

Proteus vulgaris = experiment: MIC against Gram-negative bacteria: Proteus vulgaris; conditions: 5×10^5 CFU/mL
In short: as §1

Serratia marcescens = experiment: MIC against Gram-negative bacteria: Serratia marcescens; conditions: 5×10^5 CFU/mL
In short: as §1

[1] = E. coli BL21, 10 h cultivation at 37° C.
[2] = E. coli BL21, 96-well plate, 37° C., 10 h
[3] = Pseudomonas aeruginosa, 96-well plate, 37° C., 10 h
[4] = Klebsiella pneumonia, 96-well plate, 37° C., 10 h
[5] = Enterobacter cloacae, 96-well plate, 37° C., 10 h
[6] = Aeromonas hydrophila, 96-well plate, 37° C., 10 h
[7] = Citrobacter diversus, 96-well plate, 37° C., 10 h
[8] = Moraxella catarrhalis, 96-well plate, 37° C., 10 h
[9] = Proteus mirabilis, 96-well plate, 37° C., 10 h
[10] = Proteus vulgaris, 96-well plate, 37° C., 10 h
[11] = Serratia marcescens, 96-well plate, 37° C., 10 h
[12] = 10 h cultivation at 37° C., two-fold serial dilution

PRT444 (GISECSSQPCQNGGTCVEGVNQYRCICPPGRTGNRCQ; listed as Homo sapiens)
12.5 mg/L: MIC against E. coli BL21 (E. coli BL21; 96-well plate, 37° C., 10 h) | MIC against E. cloacae (Enterobacter cloacae; 96-well plate, 37° C., 10 h) | MIC against C. diversus (Citrobacter diversus; 96-well plate, 37° C., 10 h) | MIC against P. mirabilis (Proteus mirabilis; 96-well plate, 37° C., 10 h) | MIC against S. marcescens (Serratia marcescens; 96-well plate, 37° C., 10 h)
50 mg/L: MIC against K. pneumonia (Klebsiella pneumonia; 96-well plate, 37° C., 10 h) | MIC against A. hydrophila (Aeromonas hydrophila; 96-well plate, 37° C., 10 h) | MIC against M. catarrhalis (Moraxella catarrhalis; 96-well plate, 37° C., 10 h) | MIC against P. vulgaris (Proteus vulgaris; 96-well plate, 37° C., 10 h)
25 mg/L: MIC (E. coli DH5α) | MIC against P. aeruginosa (Pseudomonas aeruginosa; 96-well plate, 37° C., 10 h)

PRT1367 (YPACPENCSGHGECVRGVCQCHEDFMSEDCS; listed as Homo sapiens)
12.5 mg/L: MIC against K. pneumonia (Klebsiella pneumonia; Klebsiella pneumonia, 10 h cultivation at 37° C.) | MIC against C. diversus (Citrobacter diversus; Citrobacter diversus, 10 h cultivation at 37° C.) | MIC against P. mirabilis (Proteus mirabilis; Proteus mirabilis, 10 h cultivation at 37° C.)
50 mg/L: MIC against E. coli BL21 (E. coli BL21; [1]) | MIC against A. hydrophila (Aeromonas hydrophila; Aeromonas hydrophila, 10 h cultivation at 37° C.) | MIC against M. catarrhalis (Moraxella catarrhalis; Moraxella catarrhalis, 10 h cultivation at 37° C.) | MIC against P. vulgaris (Proteus vulgaris; Proteus vulgaris, 10 h cultivation at 37° C.)
25 mg/L: MIC (E. coli DH5α) | MIC against P. aeruginosa (Pseudomonas aeruginosa; Pseudomonas aeruginosa, 10 h cultivation at 37° C.) | MIC against E. cloacae (Enterobacter cloacae; Enterobacter cloacae, 10 h cultivation at 37° C.) | MIC against S. marcescens (Serratia marcescens; Serratia marcescens, 10 h cultivation at 37° C.)

PRT1248 (SACYCSATSRCDPQTGACLCHAGWWGRSCN; listed as Homo sapiens)
12.5 mg/L: MIC against E. cloacae (Enterobacter cloacae; [5]) | MIC against A. hydrophila (Aeromonas hydrophila; [6]) | MIC against M. catarrhalis (Moraxella catarrhalis; [8]) | MIC against P. vulgaris (Proteus vulgaris; [10])
25 mg/L: MIC (E. coli DH5α) | MIC against E. coli BL21 (E. coli BL21; [2]) | MIC against P. aeruginosa (Pseudomonas aeruginosa; [3]) | MIC against K. pneumonia (Klebsiella pneumonia; [4]) | MIC against C. diversus (Citrobacter diversus; [7]) | MIC against P. mirabilis (Proteus mirabilis; [9]) | MIC against S. marcescens (Serratia marcescens; [11])

PRT46 (CQCNGHSTCINNNVCEQCKNLTTGKQCQDCMPGYYGDPTNGGQCTA; listed as Homo sapiens)
50 µg/mL: MIC (μg/mL) P. aeruginosa (Pseudomonas aeruginosa; [3])
25 µg/mL: MIC (μg/mL) E. cloacae (Enterobacter cloacae; [5]) | MIC (μg/mL) P. mirabilis (Proteus mirabilis; [9])
100 µg/mL: MIC (μg/mL) S. marcescens (Serratia marcescens; [11])
12.5 µg/mL: MIC (μg/mL) E. coli BL21 (E. coli BL21; [2]) | MIC (μg/mL) K. pneumonia (Klebsiella pneumonia; [4]) | MIC (μg/mL) A. hydrophila (Aeromonas hydrophila; [6]) | MIC (μg/mL) C. diversus (Citrobacter diversus; [7]) | MIC (μg/mL) M. catarrhalis (Moraxella catarrhalis; [8]) | MIC (μg/mL) P. vulgaris (Proteus vulgaris; [10])
25 mg/L: MIC (E. coli DH5α)

PRT803 (HGKGCQLPCQCRHGASCDPRAGECLCAPGYTGVYCE; listed as Homo sapiens)
100 µg/mL: MIC (μg/mL) M. catarrhalis (Moraxella catarrhalis; M. catarrhalis, 10 h cultivation at 37° C.)
50 µg/mL: MIC (μg/mL) E. coli BL21 (E. coli BL21; [1]) | MIC (μg/mL) E. cloacae (Enterobacter cloacae; E. cloacae, 10 h cultivation at 37° C.) | MIC (μg/mL) P. mirabilis (Proteus mirabilis; P. mirabilis, 10 h cultivation at 37° C.) | MIC (μg/mL) S. marcescens (Serratia marcescens; S. marcescens, 10 h cultivation at 37° C.)
50 mg/L: MIC (E. coli DH5α)
12.5 µg/mL: MIC (μg/mL) P. aeruginosa (Pseudomonas aeruginosa; P. aeruginosa, 10 h cultivation at 37° C.) | MIC (μg/mL) P. vulgaris (Proteus vulgaris; P. vulgaris, 10 h cultivation at 37° C.)
25 µg/mL: MIC (μg/mL) K. pneumonia (Klebsiella pneumonia; K. pneumonia, 10 h cultivation at 37° C.) | MIC (μg/mL) A. hydrophila (Aeromonas hydrophila; A. hydrophila, 10 h cultivation at 37° C.) | MIC (μg/mL) C. diversus (Citrobacter diversus; C. diversus, 10 h cultivation at 37° C.)

PRT1168 (NINDCSQNPCHNGGTCRDLVNDFYCDCKNGWKGKTCH; listed as Homo sapiens)
50 mg/L: MIC K. pneumonia (Klebsiella pneumonia; [12]) | MIC A. hydrophila (Aeromonas hydrophila; [12]) | MIC M. catarrhalis (Moraxella catarrhalis; [12]) | MIC P. vulgaris (Proteus vulgaris; [12])
25 mg/L: MIC (E. coli DH5α) | MIC P. aeruginosa (Pseudomonas aeruginosa; [12])
12.5 mg/L: MIC E. coli BL21 (E. coli BL21; [12]) | MIC E. cloacae (Enterobacter cloacae; [12]) | MIC C. diversus (Citrobacter diversus; [12]) | MIC P. mirabilis (Proteus mirabilis; [12]) | MIC S. marcescens (Serratia marcescens; [12])
